SMILES strings stand for the structures.

Data set [1] is described as follows: Leaching of DEHP from IV infusion sets and IV bags. In kind it is physicochemical. As to conditions: DEHP-containing IV infusion sets and IV bags.
Data set [2] in a line: Animal study NCL-049: extra air in the dead space of IV catheters during administration. In kind it is in vivo. Particulars: accidental co-administration of extra air in the dead space of IV catheters; animal studies (Study NCL-049). The protocol:
(§1) Diluted CPI-613® (devimistat) drug product must be administered over 2 hours, concurrently with D5W at the rate of 125 mL/hour, by IV infusion via a central line catheter, using an infusion pump, that is free flowing and free of air in the dead space of the IV catheter. This is done to minimize vascular irritation, inflammation and acute toxicity of CPI-613® (devimistat) (Study NCL-049). […] To avoid local reactions at and around the site of administration, CPI-613® (devimistat) must be administered via a central IV catheter.

On the set-up of data set [3]: species or system animal. Particulars: in vivo, iv. The protocol:
as §1

A short description of data set [4]: Adverse events by relatedness to devimistat. In kind it is in vivo, human. As to conditions: patients. From the text:
An AE can therefore be any unfavorable sign (including an abnormal laboratory finding), symptom, or disease temporarily associated with the study treatment, whether or not related to the investigational product.
Probably Related—A clinical event follows a reasonable temporal sequence from the time of Investigational Product (CPI-613®) administration. The toxicity cannot be reasonably explained by other factors such as the subjects clinical state or concurrent medical condition, or concurrent medication(s).
Possibly Related—A clinical event follows a reasonable temporal sequence from the time of active Investigational Product (CPI-613®) administration, but could also have been produced by other factors such as the subjects clinical state, or concurrent medical condition, or concurrent medication(s).

As to `O=C(O)CCCCC(CCSCc1ccccc1)SCc1ccccc1` (stereo not shown) [devimistat, 6,8-bis-benzylthio-octanoic acid], the “leaching of DEHP” value in data set [1] was “can cause leaching of DEHP from IV infusion sets and IV bags”. The acute toxicity result in data set [2] is “potential to induce acute toxicity”. The local inflammation result in data set [3] was “significant local inflammation”. For the same compound, in data set [4], the “adverse events probably related” value is on record as “Nausea, Vomiting, Diarrhea, Increased creatinine, Neutropenia, Hyperkalemia, Hypoalbuminemia, Hypophosphatemia, Hyponatremia, Fatigue, Platelet count decreased, Renal failure (reversible), Glomerular filtration rate (decreased), Hemoglobin (anemia)”.

The values above are taken from patent US20210393664A1, “THERAPEUTIC METHODS AND COMPOSITIONS FOR TREATING ACUTE MYELOID LEUKEMIA USING DEVIMISTAT” (Rafael Pharmaceuticals, Inc., priority 2018, published 2021).
